Assay [1] concerns the target T1, IDH1 R132H (Homo sapiens, UniProt O75874, R132H).
T1 construct: 6xHis
Put plainly: Biochemical assay for IDH inhibition (NADPH fluorescence), mutant IDH1 R132H. Conditions: 50 nM IDH1-R132H, 1 hour pre-incubation, in triplet. From the text:
(§1) The present disclosure provides a biochemical assay method for detecting the IDH inhibition and selectivity of the compounds by detecting IDH enzyme activity directly.
(§2) Wild-type IDH enzymes convert NADP^+ to NADPH when catalyzing the α-KG producing reaction. Mutant IDH enzymes convert NADPH to NADP^+ when catalyzing the D-2-HG producing reaction. So, the activity of wild-type and mutant IDH1/2 could be measured by monitoring NADPH level change as NADPH is fluorescent (Excitation 340 nm, Emission 460 nm). By monitoring the change of NADPH level in the reaction, the enzyme activity could be determined rapidly and efficiently and IC50 of a compound could also be assayed.
(§3) The test compounds are prepared into 50 mM stock solutions in DMSO and stored at −20° C. Each test compound stock is further diluted to obtain a 100× stock solution at a concentration of 400 μM, 200 μM, 100 μM, 50 μM, 25 μM, 12.5 μM, 6.25 μM and 3.125 μM, respectively, for the final use on the day of test (the concentration range of 100× stock solutions might be adjusted to cover the estimated IC50 of a specific test compound).
(§4) Inhibition of Mutant IDH1 (R132H or R132C):
(§5) To assay the enzymatic activity of mutant IDH1 proteins, 25 nM IDH1-R132C or 50 nM IDH1-R132H protein solutions are prepared in 20 mM Tris-HCl pH7.5, 150 mM NaCl, 10 mM MgCl2, 1 mM DTT, 0.05 mg/ml BSA and 1.33 mM α-KG. 148 μL 25 nM IDH1-R132C or 50 nM IDH1-R132H protein solutions are mixed with 2 μL DMSO (vehicle control for test compounds) or an above-mentioned 100× stock solution of a test compound and incubated for 1 hour at room temperature. Extra reactions containing 148 μL no-enzyme solution (20 mM Tris-HCl pH7.5, 150 mM NaCl, 10 mM MgCl2, 1 mM DTT, 0.05 mg/ml BSA and 1.33 mM α-KG) and 2 μL DMSO are also set up as background controls. Then each reaction is initiated by adding 50 μL 80 μM NADPH solution prepared in 20 mM Tris-HCl pH7.5, 150 mM NaCl, 10 mM MgCl2, 1 mM DTT and 0.05 mg/ml BSA. BioTek Synergy H1 Microplate reader (BioTek Instruments Inc., Winooski, U.S.) is employed to monitor the NADPH fluorescence (Excitation 340 nm, Emission 460 nm) every 42 seconds for 15 minutes. NADPH change rate is determined according to the linear phase of the fluorescence-time curve and results from the background control reactions are used as background subtraction to calculate the net NADPH change rates of other reactions. The net NADPH change rates from the vehicle control reactions are used as 100% enzymatic activity and thus the relative enzymatic activity of reactions with test compounds added could be determined. Then a dose-response curve is drawn for each test compound and the corresponding IC50 is calculated. The IC50 value is used to evaluate the inhibition and selectivity of each test compound on the IDH enzymatic activity.
(§6) The IDH inhibition activity of the compounds were assessed according to Test 2 of the Biological Assay section. The test for mutant IDH1 R132H and IDH1 R132C inhibition of each compound was carried out in triplet. As used in Table 5, “A” refers to an inhibitory activity against IDH1 R132H or IDH1 R132C with an IC50<0.1 μM; “B” refers to an inhibitory activity against IDH1 R132H or IDH1 R132C with an IC50 from 0.1 μM to 0.5 μM; “C” refers to an inhibitory activity against IDH1 R132H or IDH1 R132C with an IC50 from 0.5 μM to 1 μM; “D” refers to an inhibitory activity against IDH1 R132H or IDH1 R132C with an IC50>1 μM.

Assay [2] addresses T2, IDH1 R132C (Homo sapiens, UniProt O75874, R132C).
T2 construct: 6xHis
Put plainly: Biochemical assay for IDH inhibition (NADPH fluorescence), mutant IDH1 R132C. Conditions: 25 nM IDH1-R132C, 1 hour pre-incubation, in triplet.
Excerpt: as §1, §2, §3, §4, §5, §6

Assay [3] addresses T3, IDH (endogenous IDH1 R132C) in HT1080 cell (Homo sapiens, UniProt O75874, R132C).
T3 construct: which harbor endogenous heterozygous IDH1 R132C and R132H mutation respectively and accumulate D-2-HG
Put plainly: Cell-based assay for IDH inhibition (decrease of D-2-HG) in HT1080 cells. The conditions noted are these: human fibrosarcoma cell line HT1080, 16 hours treatment, D-2-HG by LC-MS, in triplet. An excerpt:
The present disclosure also provides a cell-based method for assaying IDH inhibition and selectivity of the compounds in human fibrosarcoma cell line HT1080 and cholangiocarcinoma cell line HCCC 9810, which harbor endogenous heterozygous IDH1 R132C and R132H mutation respectively and accumulate D-2-HG. Tumor -derived IDH mutant lost its normal activity of producing α-KG, and gained a new activity of producing D-2-HG. D-2-HG is a metabolite specifically elevated in tumor cells expressing mutant IDH1 or IDH2 proteins. When treating such mutant IDH-expressing tumor cells with an effective IDH inhibitor, the synthesis of D-2-HG is blocked, and D-2-HG concentration is decreased by the oxidation reaction catalyzed by the endogenous D-2-HG dehydrogenase.
To perform a cell-based IDH inhibition assay, HT1080 and HCCC 9810 cells (or other cell lines harboring different IDH mutations) are cultured in DMEM supplemented with 10% FBS. The cells are treated with compounds of present disclosure at various different concentrations. 16 hours after the treatment, culture medium supernatants are removed and cell metabolites are extracted by 40% methanol and 40% acetonitrile in water (pre-chilled under −80° C.) at 4° C. for 1 hour. The extract supernatants are collected and cell debris are removed via high speed centrifugation. The resulting metabolite extracts are analyzed on an Agilent LC-MS system (model: 1290-6470) for 2-HG and glutamate concentration. A HILIC-Z column (2.1 mm×100 mm, […]) is employed on HPLC. Mobile phase A is 15 mM CH3COONH4 and 0.3% NH3·H2O in water. Mobile phase B is 15 mM CH3COONH4 and 0.3% NH3·H2O in 90% MeCN/10% H2O solvent. An 19% solvent A and 81% solvent B isocratic gradient method is used at a flow rate of 0.3 ml/min. D-2-HG is ionized under negative ion spray mode and detected through the multiple-reaction monitoring of a mass transition pair at m/z=147.0/128.9 and 147.0/85.1. Glutamate is ionized under ion spray mode and detected on negative polarity multiple-reaction monitoring of a mass transition pair at m/z=146/102 and 146/128 and its level is used to normalize 2-HG concentration. The activity of cellular mutant IDH proteins in the presence of each test compound at different concentrations can be represented by relative D-2-HG concentration to negative control samples (i.e., cells are treated with DMSO only), and the IC50 value could be determined to evaluate the inhibition and selectivity of each test compound on the IDH enzymatic activity.
The IDH inhibition activity of the compounds were assessed in human fibrosarcoma cell line HIT1080 according to Test 3 of the Biological Assay section. The test for IDH inhibition of each compound was carried out in triplet. As used in Table 6, “A” refers to an IDH inhibitory activity with an IC50<0.1 μM; “B” refers to an IDH inhibitory activity with an IC50 from 0.1 μM to 0.5 μM; “C” refers to an IDH inhibitory activity with an IC50 from 0.5 μM to 1 μM; “D” refers to an IDH inhibitory activity with an IC50>1 μM.

Bounds are passed on as bounds.

T1 sequence (O75874 whole entry R132H): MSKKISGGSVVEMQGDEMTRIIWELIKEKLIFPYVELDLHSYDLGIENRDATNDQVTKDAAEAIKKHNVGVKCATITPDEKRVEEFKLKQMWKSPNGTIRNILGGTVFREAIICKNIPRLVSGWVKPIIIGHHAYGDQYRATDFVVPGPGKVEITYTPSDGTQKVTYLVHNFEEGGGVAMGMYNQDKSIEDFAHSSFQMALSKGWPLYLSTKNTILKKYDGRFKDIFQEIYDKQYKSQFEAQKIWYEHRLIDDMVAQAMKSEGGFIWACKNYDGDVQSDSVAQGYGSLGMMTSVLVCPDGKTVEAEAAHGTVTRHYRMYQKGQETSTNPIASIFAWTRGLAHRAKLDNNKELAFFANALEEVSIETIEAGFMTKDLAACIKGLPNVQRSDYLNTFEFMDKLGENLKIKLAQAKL
T3 sequence (O75874 2-414 R132C): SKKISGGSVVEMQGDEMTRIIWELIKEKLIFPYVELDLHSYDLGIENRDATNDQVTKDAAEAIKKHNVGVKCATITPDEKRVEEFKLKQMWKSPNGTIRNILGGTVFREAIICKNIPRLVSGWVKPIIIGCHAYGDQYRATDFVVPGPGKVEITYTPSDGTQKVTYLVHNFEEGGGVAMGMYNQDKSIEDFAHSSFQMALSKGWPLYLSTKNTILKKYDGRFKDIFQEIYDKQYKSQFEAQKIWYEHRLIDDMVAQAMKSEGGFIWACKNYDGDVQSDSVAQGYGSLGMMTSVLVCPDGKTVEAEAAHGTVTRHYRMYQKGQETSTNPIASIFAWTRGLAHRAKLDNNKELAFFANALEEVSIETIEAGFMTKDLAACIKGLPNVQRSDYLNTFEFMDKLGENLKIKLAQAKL
T2 sequence (O75874 whole entry R132C): as the sequence (O75874 whole entry R132H) above, with H132C counted along it

Take `CCN1Cc2c(ccnc2N[C@@H](C)c2cc(F)c(O[C@H]3C[C@@H](C)CC(C)(C)C3)cc2F)C1=O` [Compound 24, 4-(((S)-1-(2,5-difluoro-4-(((1S,5S)-3,3,5-trimethylcyclohexyl)oxy)phenyl)ethyl)amino)-2-ethyl-2,3-dihydro-1H-pyrrolo[3,4-c]pyridin-1-one]: the IC50 in assay [1], in assay [2] and in assay [3] was less than 100 nM throughout.
Regarding `CCN1Cc2c(ccnc2N[C@@H](C)c2ccc(Oc3ccnc(C(C)(C)C)c3)c(F)c2)C1=O` [Compound 25, (S)-4-((1-(4-((2-(tert-butyl)pyridin-4-yl)oxy)-3-fluorophenyl)ethyl)amino)-2-ethyl-2,3-dihydro-1H-pyrrolo[3,4-c]pyridin-1-one], the IC50 (in general, the midpoint of a concentration-inhibition curve) in assay [1] was in the range of 100 to 500 nM; in assay [2] it was 100 to 500 nM; in assay [3], 500 to 1000 nM.
Regarding `CCN1Cc2c(ccnc2N[C@@H](C)c2ccc(Oc3ccnc(C(F)(F)F)c3)c(F)c2)C1=O` [Compound 26, (S)-2-ethyl-4-((1-(3-fluoro-4-((2-(trifluoromethyl)pyridin-4-yl)oxy)phenyl)ethyl)amino)-2,3-dihydro-1H-pyrrolo[3,4-c]pyridin-1-one], the IC50 in assay [1], in assay [2] and in assay [3] was more than 1000 nM throughout.
For `CCN1Cc2c(ccnc2N[C@@H](C)c2ccc(OC3CCC(F)(F)C3)c(F)c2)C1=O` (stereo partly drawn) [Compound 27, 4-(((1S)-1-(4-((3,3-difluorocyclopentyl)oxy)-3-fluorophenyl)ethyl)amino)-2-ethyl-2,3-dihydro-1H-pyrrolo[3,4-c]pyridin-1-one], the IC50 in assay [1], in assay [2] and in assay [3] was more than 1000 nM each time.
`CCN1Cc2c(ccnc2N[C@@H](C)c2ccc(OCC3CNC3)c(F)c2)C1=O` [Compound 28, (S)-4-((1-(4-(azetidin-3-ylmethoxy)-3-fluorophenyl)ethyl)amino)-2-ethyl-2,3-dihydro-1H-pyrrolo[3,4-c]pyridin-1-one]: the IC50 in assay [1], in assay [2] and in assay [3] was more than 1000 nM throughout.
On to `CCN1Cc2c(ccnc2N[C@@H](C)c2ccc(Oc3ccc4c(c3)CCN4C)c(F)c2)C1=O` [Compound 29, (S)-2-ethyl-4-((1-(3-fluoro-4-((1-methylindolin-5-yl)oxy)phenyl)ethyl)amino)-2,3-dihydro-1H-pyrrolo[3,4-c]pyridin-1-one], for which the IC50 was 100 to 500 nM in assay [1], 500 to 1000 nM in assay [2] and more than 1000 nM in assay [3].
For `CCN1Cc2c(ccnc2N[C@@H](C)c2ccc(Oc3ccnc4ccccc34)c(F)c2)C1=O` [Compound 30, (S)-2-ethyl-4-((1-(3-fluoro-4-(quinolin-4-yloxy)phenyl)ethyl)amino)-2,3-dihydro-1H-pyrrolo[3,4-c]pyridin-1-one] the same measures were 500 to 1000 nM, more than 1000 nM and more than 1000 nM.
Turning to `CCN1Cc2c(ccnc2N[C@@H](C)c2ccc(N(C)c3ccccc3)c(F)c2)C1=O` [Compound 31, (S)-2-ethyl-4-((1-(3-fluoro-4-(methyl(phenyl)amino)phenyl)ethyl)amino)-2,3-dihydro-1H-pyrrolo[3,4-c]pyridin-1-one], the IC50 in assay [1], in assay [2] and in assay [3] was more than 1000 nM in each case.
As to `CCN1Cc2c(ccnc2N[C@@H](C)c2ccc(Nc3ccccc3)c(F)c2)C1=O` [Compound 32, (S)-2-ethyl-4-((1-(3-fluoro-4-(phenylamino)phenyl)ethyl)amino)-2,3-dihydro-1H-pyrrolo[3,4-c]pyridin-1-one], the IC50 in assay [1], in assay [2] and in assay [3] was more than 1000 nM each time.
For the molecule `CCN1Cc2c(ccnc2N[C@@H](C)c2ccc(-c3ccc(C(F)(F)F)cc3)c(F)c2)C1=O` [Compound 33, (S)-2-ethyl-4-((1-(2-fluoro-4′-(trifluoromethyl)-[1,1′-biphenyl]-4-yl)ethyl)amino)-2,3-dihydro-1H-pyrrolo[3,4-c]pyridin-1-one], the half-inhibitory concentration (IC50) in assay [1] is 500 to 1000 nM; in assay [2] it was more than 1000 nM; in assay [3] it was more than 1000 nM.
Regarding `CCN1Cc2c(ccnc2N[C@@H](C)c2ccc(-c3ccnc(C(F)(F)F)c3)c(F)c2)C1=O` [Compound 34, (S)-2-ethyl-4-((1-(3-fluoro-4-(2-(trifluoromethyl)pyridin-4-yl)phenyl)ethyl)amino)-2,3-dihydro-1H-pyrrolo[3,4-c]pyridin-1-one], the IC50 in assay [1], in assay [2] and in assay [3] was more than 1000 nM in each case.
For the molecule `CCN1Cc2c(ccnc2N[C@@H](C)c2ccc(C3=CCN(C(C)(C)C)CC3)c(F)c2)C1=O` [Compound 35, (S)-4-((1-(4-(1-(tert-butyl)-1,2,3,6-tetrahydropyridin-4-yl)-3-fluorophenyl)ethyl)amino)-2-ethyl-2,3-dihydro-1H-pyrrolo[3,4-c]pyridin-1-one], the IC50 in assay [1], in assay [2] and in assay [3] was more than 1000 nM in each case.

(Values after US12441725B2, “ISO-citrate dehydrogenase (IDH) inhibitor” (ZHEJIANG METON PHARMACEUTICAL CO., LTD, priority 2019, dated 2025).)
